Results published in ChEMBL document CHEMBL3217742, “Mapping of a lipoglycopeptide antibiotic binding site on Staphylococcus aureus penicillin-binding protein 2 using a vancomycin photoaffinity analogue” (2012).
Converted amounts (≈) assume the structure as drawn. The source made the active and inactive calls. The calls are words filed in the database; no cut-off is given here.

What was measured:
[1] = test system: Enterococcus faecium; assay: Antibacterial activity against vancomycin A-resistant Enterococcus faecium SR7940; assay type: functional
[2] = test system: Enterococcus faecium; assay: Antibacterial activity against vancomycin B-resistant Enterococcus faecium SR23598; assay type: functional
[3] = test system: Staphylococcus aureus subsp. aureus RN4220; assay: Binding affinity to Staphylococcus aureus RN4220 recombinant C-terminal His6-tagged PBP2 expressed in Escherichia coli cells at 2 uM incubated for 2 hrs measured after UV irradiation by LC-MALDI-MS/MS analysis
[4] = test system: Staphylococcus aureus; assay: Antibacterial activity against vancomycin-susceptible Staphylococcus aureus RN4220; assay type: functional
[5] = test system: Staphylococcus aureus subsp. aureus RN4220; assay: Binding affinity to penicillin-binding protein-2 in Staphylococcus aureus RN4220 cell membrane at 50 uM incubated for 20 mins measured after UV irradiation by SDS-PAGE based immunostaining
[6] = test system: Enterococcus faecium; assay: Antibacterial activity against vancomycin-susceptible Enterococcus faecium SR16972; assay type: functional
[7] = test system: Staphylococcus aureus; assay: Antibacterial activity against vancomycin A-resistant Staphylococcus aureus VRS2; assay type: functional
[8] = test system: Staphylococcus aureus subsp. aureus RN4220; assay: Binding affinity to penicillin-binding protein-2 transpeptidase domain in Staphylococcus aureus RN4220 cell membrane at 1 uM incubated for 1 hr measured after UV irradiation by pull-down assay
[9] = test system: Staphylococcus aureus subsp. aureus RN4220; assay: Displacement of photoaffinity probe 1 from penicillin-binding protein-2 in Staphylococcus aureus RN4220 cell membrane incubated for 5 mins prior to photoaffinity probe 1 challenge for 5 mins measured after UV irradiation by SDS-PAGE based western blot analysis

Compound | MIC [1] [µg/mL] | MIC [2] [µg/mL] | Activity [3] | MIC [4] [µg/mL] | Activity [5] | MIC [6] [µg/mL] | MIC [7] [µg/mL] | Activity [8] | inhibition [9]
CN[C@H](CC(C)C)C(=O)N[C@H]1C(=O)N[C@@H](CC(N)=O)C(=O)N[C@H]2C(=O)N[C@H]3C(=O)N[C@H](C(=O)N[C@H](C(=O)NCCCOCCOCCOCCCNC(=O)CCCC[C@@H]4SC[C@@H]5NC(=O)N[C@@H]54)c4cc(O)cc(O)c4-c4cc3ccc4O)[C@H](O)c3ccc(c(Cl)c3)Oc3cc2cc(c3O[C@@H]2O[C@H](CO)[C@@H](O)[C@H](O)[C@H]2O[C@H]2C[C@](C)(NCc3ccc(NC(=O)c4ccc(C5(C(F)(F)F)N=N5)cc4)nc3)[C@H](O)[C@H](C)O2)Oc2ccc(cc2Cl)[C@H]1O | 2 (≈ 0.911 µM) | 0.5 (≈ 0.228 µM) | Active | 1 (≈ 0.455 µM) | Active | 0.5 (≈ 0.228 µM) | 2 (≈ 0.911 µM) | Active | –
CN[C@H](CC(C)C)C(=O)N[C@H]1C(=O)N[C@@H](CC(N)=O)C(=O)N[C@H]2C(=O)N[C@H]3C(=O)N[C@H](C(=O)N[C@H](C(=O)O)c4cc(O)cc(O)c4-c4cc3ccc4O)[C@H](O)c3ccc(c(Cl)c3)Oc3cc2cc(c3O[C@@H]2O[C@H](CO)[C@@H](O)[C@H](O)[C@H]2O[C@H]2C[C@](C)(NCc3cccc(NC(=O)c4ccc(C)c(OCc5ccccc5)c4[N+](=O)[O-])c3)[C@H](O)[C@H](C)O2)Oc2ccc(cc2Cl)[C@H]1O | 1 (≈ 0.548 µM) | 0.25 (≈ 0.137 µM) | – | 0.125 (≈ 0.0685 µM) | – | 0.25 (≈ 0.137 µM) | 0.5 (≈ 0.274 µM) | – | Dose-dependent effect
CN[C@H](CC(C)C)C(=O)N[C@H]1C(=O)N[C@@H](CC(N)=O)C(=O)N[C@H]2C(=O)N[C@H]3C(=O)N[C@H](C(=O)N[C@H](C(=O)O)c4cc(O)cc(O)c4-c4cc3ccc4O)[C@H](O)c3ccc(c(Cl)c3)Oc3cc2cc(c3O[C@@H]2O[C@H](CO)[C@@H](O)[C@H](O)[C@H]2O[C@H]2C[C@](C)(N)[C@H](O)[C@H](C)O2)Oc2ccc(cc2Cl)[C@H]1O [VANCOMYCIN] | > 64 | > 64 | – | – | – | – | > 64 | – | –
